Measured values reported in patent US7605272B2, “IGF-1R inhibitor” (Kyowa Hakko Kirin Co., Ltd., priority 2005, dated 2009).
Structures can show the parent of a compound that is named as a salt.

These compounds were tested against T1, IGF-1R (Homo sapiens, UniProt P08069) (assay: IGF-1R inhibitory activity (kinase reaction, time-resolved fluoroimmunoassay)). Settings: IGF-1R active recombinant enzyme, test compound 10 μmol/L.
T1 construct: purchased Upstate Co. 14-465
Assay type: biochemical
Experimental: The IGF-1R inhibitory activity was measured in the following manner.
As IGF-1R, active recombinant enzyme (Catalog No. 14-465) purchased from Upstate Co., was used. To 96 well plate (FIA-PLATE BLACK 96 well FALT-BOTTOM HIGH BINDING, Greiner Bio-one, Catalog No. 655077) coated with NeutroAvidin (Pierce, Catalog No. 31000), biotinylated polyglutamic acid-tyrosine peptide (Nihon Schering K.K., Catalog No. 61GT0BAA) was immobilized and then blocked with 0.25% gelatin to be used as a plate for measuring the kinase reaction. Separately was prepared a solution containing at final concentrations, IGF-1R (200 μg/L), Tris.HCl(pH 7.5)(20 mmol/L), Na3VO4(0.1 mmol/L), MgCl2(1 mmol/L), MnCl2(10 mmol/L), ATP(10 mmol/L), 2-mercaptoethanol (0.04%), BSA(Bovine Serum Albumin) (0.1%), DMSO(0.1%), test compound (10 μmol/L). The solution (each 50 μL) was added to the well of the plate for measuring the kinase reaction and then, enzyme reaction was performed for 30 minutes at 24° C. The plate was washed with TBS-T [10 mmol/L Tris Cl (pH 7.5), 150 mmol/L NaCl, 0.05% Tween 20 (Bio-Rad, Catalog No. 170-6531)] 4 times, then reacted with europium-labeled anti-phosphotyrosine antibody, further washed with TBS-T 4 times and then, measured with time-resolved fluoroimmunoassay (excitation wavelength 340 nm, measuring wavelength 615 nm). The value of a well to which the test compound had not been added was considered as 100% and that of a well where the enzyme and the test compound had not been added was considered as 0%. The relative activity (%) of the well which was added with enzyme and the test compound was measured and by subtracting the calculated value from 100, IGF-1R inhibitory activity of the test compound (%) was determined.

T1 sequence (P08069 959-1367 limits assumed): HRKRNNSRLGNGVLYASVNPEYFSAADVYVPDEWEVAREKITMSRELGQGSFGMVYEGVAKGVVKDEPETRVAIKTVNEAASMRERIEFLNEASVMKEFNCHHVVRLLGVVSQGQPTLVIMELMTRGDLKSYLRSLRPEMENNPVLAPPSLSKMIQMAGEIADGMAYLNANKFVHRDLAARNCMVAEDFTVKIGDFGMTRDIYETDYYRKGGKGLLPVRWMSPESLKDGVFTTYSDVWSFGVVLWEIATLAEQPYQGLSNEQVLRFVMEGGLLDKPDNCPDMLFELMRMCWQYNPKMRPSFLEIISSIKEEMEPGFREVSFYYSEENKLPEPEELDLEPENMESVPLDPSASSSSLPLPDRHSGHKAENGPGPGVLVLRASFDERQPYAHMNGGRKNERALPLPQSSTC

SMILES	inhibition at 10 µM [%]	inhibitory activity (%) at 10 μmol/L [%]
OCc1csc(Nc2ccccc2/C=C/c2n[nH]c3ccccc23)n1 [Compound 173, (E)-2-{2-[2-(1H-indazol-3-yl)vinyl]phenylamino}thiazole-4-methanol]	97.8	
O=C(Nc1ccccc1/C=C/c1n[nH]c2ccccc12)c1ccccc1[N+](=O)[O-] [Compound 74, (E)-N-{2-[2-(1H-indazol-3-yl)vinyl]phenyl}-2-nitrobenzamide]	97.6	
Cc1ccsc1/C=N/c1ccccc1C=Cc1n[nH]c2ccccc12 [Compound 160, (E)-N-{2-[2-(1H-indazol-3-yl)vinyl]phenyl}(3-methylthiophen-2-ylmethylene)amine]	98.4	
O=c1[nH]c(-c2ccccc2/C=C/c2n[nH]c3ccccc23)no1 [Compound 178, (E)-3-{2-[2-(1H-indazol-3-yl)vinyl]phenyl}-4H-[1,2,4]oxadiazole-5-one]	71.1	
Cc1ccsc1C(=O)Nc1ccc(N2CCOCC2)cc1/C=C/c1n[nH]c2ccccc12 [Compound 225, (E)-N-{2-[2-(1H-indazol-3-yl)vinyl]-4-(morpholin-4-yl)phenyl}-3-methylthiophene-2-carboxamide hydrochloride]	95	
C(=C\c1cccc2nc(-c3cccs3)oc12)/c1n[nH]c2ccccc12 [Compound 149, (E)-7-[2-(1H-indazol-3-yl)vinyl]-2-(thiophen-2-yl)benzoxazole]	70	
Cc1oncc1C(=O)Nc1ccccc1/C=C/c1n[nH]c2ccccc12 [Compound 72, (E)-N-{2-[2-(1H-indazol-3-yl)vinyl]phenyl}-5-methylisoxazole-4-carboxamide]	82.7	
CSc1ccccc1/C=C/c1n[nH]c2ccccc12 [Compound 146, (E)-3-[2-(2-methylsulfanylphenyl)vinyl]-1H-indazole]	78.3	
CCOC(=O)c1cnc(Nc2ccccc2/C=C/c2n[nH]c3ccccc23)s1 [Compound 165, (E)-2-{2-[2-(1H-indazol-3-yl)vinyl]phenylamino}thiazole-5-carboxylic acid ethylester]	93.8	
CNC(=O)c1nc(-c2ccccc2/C=C/c2n[nH]c3ccccc23)no1 [Compound 177, (E)-3-{2-[2-(1H-indazol-3-yl)vinyl]phenyl}-N-methyl[1,2,4]oxadiazole-5-carboxamide]	99.4	
C(=C\c1n[nH]c2ccccc12)/c1ccccc1NCc1ccccc1 [Compound 26, (E)-N-benzyl-N-{2-[2-(1H-indazol-3-yl)vinyl]phenyl}amine]	67.8	
CCOC(=O)c1csc(Nc2ccccc2/C=C/c2n[nH]c3ccccc23)n1 [Compound 169, (E)-2-{2-[2-(1H-indazol-3-yl)vinyl]phenylamino}thiazole-4-carboxylic acid ethyl ester]	88.4	
CN(C)/C=N/c1ccccc1C=Cc1n[nH]c2ccccc12 [Compound 75, (E)-N-{2-[2-(1H-indazol-3-yl)vinyl]phenyl}-N,N-dimethylformamidine]		90.4
C(=Cc1n[nH]c2ccccc12)c1ccccc1Nc1cnccn1 [Compound 155, N-{2-[2-(1H-indazol-3-yl)vinyl]phenyl}-2-pyrazylamine]		97.9
CS(=O)(=O)c1ccc(C(=O)Nc2ccccc2/C=C/c2n[nH]c3ccccc23)s1 [Compound 354, (E)-N-{2-[2-(1H-indazol-3-yl)vinyl]phenyl}-5-(methylsulfonyl)thiophene-2-carboxamide]	97.1	

The next lines start with the values.

inhibition at 10 µM [%]	inhibitory activity (%) at 10 μmol/L [%]	SMILES
99.1		CCNc1ccc2c(c1)C(=O)N(c1ccccc1/C=C/c1n[nH]c3ccccc13)C2=O [Compound 201, (E)-5-ethylamino-2-{2-[2-(1H-indazol-3-yl)vinyl]phenyl}isoindole-1,3-dione]
105		Nc1cccc2c1CN(c1cc(CN3CCN(CCO)CC3)ccc1/C=C/c1n[nH]c3ccccc13)C2=O [Compound 345, (E)-4-amino-2-{5-[4-(2-hydroxyethyl)piperazin-1-ylmethyl]-2-[2-(1H-indazol-3-yl)vinyl]phenyl}-2,3-dihydroisoindole-1-one]
96.1		O=C1CCCN1c1ccccc1/C=C/c1n[nH]c2ccccc12 [Compound 208, (E)-1-{2-[2-(1H-indazol-3-yl)vinyl]phenyl}pyrrolidin-2-one]
96.1		O=C(c1ccc(/C=C/c2n[nH]c3ccccc23)c(N2C(=O)c3ccccc3C2=O)c1)N1CCN(CCO)CC1 [Compound 286, (E)-2-[5-[4-(2-hydroxyethyl)piperazin-1-ylcarbonyl]-2-[2-(1H-indazol-3-yl)vinyl]phenyl]isoindole-1,3-dione]
98.9		OCCc1nc(-c2ccccc2/C=C/c2n[nH]c3ccccc23)no1 [Compound 181, (E)-2-{3-{2-[2-(1H-indazol-3-yl)vinyl]phenyl}[1,2,4]oxadiazol-5-yl}ethanol]
99.4		O=C1c2cccc(F)c2C(=O)N1c1ccccc1/C=C/c1n[nH]c2ccccc12 [Compound 199, (E)-4-fluoro-2-{2-[2-(1H-indazol-3-yl)vinyl]phenyl}isoindole-1,3-dione]
102		Nc1cccc2c1CN(c1cc(CN3CCN(CCCO)CC3)ccc1/C=C/c1n[nH]c3ccccc13)C2=O [Compound 314, (E)-4-amino-2-{5-[4-(3-hydroxypropyl)piperazin-1-ylmethyl]-2-[2-(1H-indazol-3-yl)vinyl]phenyl}-2,3-dihydroisoindole-1-one]
98.1		O=C1C(Cl)=C(Cl)C(=O)N1c1ccccc1/C=C/c1n[nH]c2ccccc12 [Compound 207, (E)-3,4-dichloro-1-{2-[2-(1H-indazol-3-yl)vinyl]phenyl}pyrrole-2,5-dione]
102		CN(C)CCNCc1ccn(-c2ccccc2/C=C/c2n[nH]c3ccccc23)c1 [Compound 186, (E)-N′-(1-{2-[2-(1H-indazol-3-yl)vinyl]phenyl}-1H-pyrrol-3-ylmethyl)-N,N-dimethylethane-1,2-diamine]
98.2		OCCNCc1ccn(-c2ccccc2/C=C/c2n[nH]c3ccccc23)c1 [Compound 187, (E)-2-(1-{2-[2-(1H-indazol-3-yl)vinyl]phenyl}-1H-pyrrol-3-ylmethylamino)ethanol]
99.6		OCc1nc(-c2ccccc2/C=C/c2n[nH]c3ccccc23)no1 [Compound 179, (E)-3-{2-[2-(1H-indazol-3-yl)vinyl]phenyl}[1,2,4]oxadiazol-5-ylmethanol]
92.9		O=C1c2ccccc2C(=O)N1c1cc(N2CCN(CCO)CC2)ccc1/C=C/c1n[nH]c2ccccc12 [Compound 299, (E)-2-{5-[4-(2-hydroxyethyl)piperazin-1-yl]-2-[2-(1H-indazol-3-yl)vinyl]phenyl}isoindole-1,3-dione]
97.9		C(=C\c1n[nH]c2ccccc12)/c1ccccc1-n1ccc(CN2CCOCC2)c1 [Compound 182, (E)-3-{2-[2-(3-morpholin-4-ylmethylpyrrol-1-yl)phenyl]vinyl}-1H-indazole]
94.1		O=Cc1ccn(-c2ccccc2/C=C/c2n[nH]c3ccccc23)c1 [Compound 167, (E)-1-{2-[2-(1H-indazol-3-yl)vinyl]phenyl}-1H-pyrrole-3-carbaldehyde]
97.2		O=C(Nc1ccccc1/C=C/c1n[nH]c2ccccc12)c1ccc(CO)cc1 [Compound 79, (E)-4-hydroxymethyl-N-{2-[2-(1H-indazol-3-yl)vinyl]phenyl}benzamide]
96.5		O=C1C2=C(CCC2)C(=O)N1c1ccccc1/C=C/c1n[nH]c2ccccc12 [Compound 210, (E)-2-{2-[2-(1H-indazol-3-yl)vinyl]phenyl}-5,6-dihydro-4H-cyclopenta[c]pyrrole-1,3-dione]

Same assay, conditions: test compound 10 μmol/L

inhibition at 10 µM [%]	SMILES	inhibitory activity (%) at 10 μmol/L [%]
60.7	O=C(Nc1ccccc1/C=C/c1n[nH]c2ccccc12)c1ccc([N+](=O)[O-])cc1Cl [Compound 81, (E)-2-chloro-N-{2-[2-(1H-indazol-3-yl)vinyl]phenyl}-4-nitrobenzamide]	
	CCN(CC)C(=O)c1ccc(/C=C/c2n[nH]c3ccccc23)c(NC(=O)c2sccc2C)c1.Cl [Compound 124, (E)-N-{5-(N,N-diethylcarbamoyl)-2-[2-(1H-indazol-3-yl)vinyl]phenyl}-3-methylthiophene-2-carboxamide hydrochloride]	98.9
84.7	CSc1ccc(C(=O)Nc2ccccc2/C=C/c2n[nH]c3ccccc23)cc1 [Compound 82, (E)-N-{2-[2-(1H-indazol-3-yl)vinyl]phenyl}-4-methylsulphanylbenzamide]	
92	Cc1ccsc1C(=O)Nc1cc(C(=O)NCCO)ccc1/C=C/c1n[nH]c2ccccc12 [Compound 114, (E)-N-{5-[N-(2-hydroxyethyl)carbamoyl]-2-[2-(1H-indazol-3-yl)vinyl]phenyl}-3-methylthiophene-2-carboxamide]	
